Assay [1] deals with Glucagon-like peptide 1 receptor (Homo sapiens, UniProt P43220). Nature of the assay: Antagonist activity at human GLP-1R expressed in CHO cells assessed as inhibition of GLP-1-stimulated cAMP production preincubated for 30 mins followed by GLP-1 induction measured after 45 mins by LANCE assay. It counts as functional, cell-based.
The target in assay [2] is T1, Glucagon receptor (Homo sapiens, UniProt P47871). In words: biochemical. It counts as cell-based, CHO.
Description: Displacement of [125I]-glucagon from recombinant human GCGR expressed in CHO cells after 60 mins by scintillation counting analysis
The target of assay [3] is T1, Glucagon receptor. In words: Antagonist activity at human GCGR expressed in CHO cells assessed as inhibition of glucagon-stimulated cAMP production preincubated for 30 mins followed by glucagon induction measured after 45 mins by LANCE assay. Format: functional, cell-based.

Molecules are shown by their SMILES.

Sequence of Glucagon-like peptide 1 receptor (P43220 whole entry): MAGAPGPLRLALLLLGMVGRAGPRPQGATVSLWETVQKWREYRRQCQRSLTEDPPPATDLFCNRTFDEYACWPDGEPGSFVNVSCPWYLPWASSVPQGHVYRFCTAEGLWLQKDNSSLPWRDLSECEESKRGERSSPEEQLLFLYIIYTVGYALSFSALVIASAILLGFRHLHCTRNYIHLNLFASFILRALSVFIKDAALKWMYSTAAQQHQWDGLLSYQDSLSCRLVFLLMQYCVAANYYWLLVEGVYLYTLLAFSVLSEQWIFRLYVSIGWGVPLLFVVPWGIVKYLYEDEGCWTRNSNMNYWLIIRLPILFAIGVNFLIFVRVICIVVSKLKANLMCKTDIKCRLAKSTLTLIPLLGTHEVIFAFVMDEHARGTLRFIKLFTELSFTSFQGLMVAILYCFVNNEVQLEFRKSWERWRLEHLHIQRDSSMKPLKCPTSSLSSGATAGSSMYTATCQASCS
T1 sequence (P47871 whole entry): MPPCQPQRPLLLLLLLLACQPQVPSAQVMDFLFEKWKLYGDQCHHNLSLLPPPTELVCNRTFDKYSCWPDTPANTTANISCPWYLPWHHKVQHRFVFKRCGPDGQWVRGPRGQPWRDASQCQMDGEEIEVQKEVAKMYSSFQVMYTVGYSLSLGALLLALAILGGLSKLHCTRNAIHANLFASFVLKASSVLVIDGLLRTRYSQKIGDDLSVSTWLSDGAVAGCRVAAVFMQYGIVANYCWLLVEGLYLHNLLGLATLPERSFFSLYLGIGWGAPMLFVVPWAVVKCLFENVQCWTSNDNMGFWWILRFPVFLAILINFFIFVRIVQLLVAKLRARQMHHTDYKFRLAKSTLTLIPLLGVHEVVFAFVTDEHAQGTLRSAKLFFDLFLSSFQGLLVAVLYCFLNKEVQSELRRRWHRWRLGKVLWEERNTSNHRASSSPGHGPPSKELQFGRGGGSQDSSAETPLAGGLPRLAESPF

Turning to `CC(C)(C)CC[C@H](c1ccc(C(=O)NCc2nn[nH]n2)cc1)N1C(=O)C(c2cc(Cl)cc(Cl)c2)=NC12CCCCC2`, the 50% inhibitory concentration (IC50) is above 10 µM in assay [1], 195 nM against Glucagon receptor [2] and 510 nM on Glucagon receptor [3].

`CC(C)(C)CC[C@H](c1ccc(C(=O)NCCCC(=O)O)cc1)N1C(=O)C(c2cc(Cl)cc(Cl)c2)=N[C@]12CC[C@@H](C(C)(C)C)CC2`: the 50% inhibitory concentration (IC50) in assay [1] is above 10 µM; against Glucagon receptor [2] it was 270 nM; on Glucagon receptor [3], 350 nM.

As to `C[C@@H](NC(=O)c1ccc([C@@H](CCC(C)(C)C)N2C(=O)C(c3cc(Cl)cc(Cl)c3)=N[C@]23CC[C@@H](C(C)(C)C)CC3)cc1)c1nnn[nH]1`, the IC50 in assay [1] was above 10 µM; on Glucagon receptor [3], 4500 nM.

Regarding `C[C@@H](c1ccc(C(=O)NCCC(=O)O)cc1)N1C(=O)C(c2cc(Cl)cc(Cl)c2)=N[C@]12CC[C@@H](C(C)(C)C)CC2`, the half-inhibitory concentration (IC50) was above 10 µM in assay [1] and 5100 nM on Glucagon receptor [3].

As for `CC(C)(C)CC[C@H](c1ccc(C(=O)NCc2nn[nH]n2)cc1)N1C(=O)C(c2ncccc2C(F)(F)F)=N[C@]12CC[C@@H](C(C)(C)C)CC2`, the 50% inhibitory concentration (IC50) in assay [1] was above 10 µM; at Glucagon receptor [3], 1600 nM.

For the molecule `CC[C@H]1CC[C@]2(CC1)N=C(c1cc(Cl)cc(Cl)c1)C(=O)N2[C@H](CCC(C)(C)C)c1ccc(C(=O)NCc2nn[nH]n2)cc1`, the half-maximal inhibitory concentration (IC50) in assay [1] was above 10 µM; on Glucagon receptor [2] it was 44 nM; on Glucagon receptor [3] it was 66 nM.

Regarding `CC(C)(C)CC[C@H](c1ccc(C(=O)NCCS(=O)(=O)O)cc1)N1C(=O)C(c2cc(Cl)cc(Cl)c2)=N[C@]12CC[C@@H](C(C)(C)C)CC2`, the IC50 is above 10 µM in assay [1] and 8500 nM at Glucagon receptor [3].

`CC(C)(C)CC[C@H](c1ccc(C(=O)NCc2nn[nH]n2)cc1)N1C(=O)C(c2cc(Cl)cc(Cl)c2)=N[C@]12CC[C@@H](C)CC2`: the IC50 in assay [1] was above 10 µM; against Glucagon receptor [2] it was 36 nM; on Glucagon receptor [3] it was 260 nM.

Take `CC(C)(C)CC[C@H](c1ccc(C(=O)NCc2nn[nH]n2)cc1)N1C(=O)C(c2cc(Cl)cc(Cl)c2)=NC1(C)C`: the IC50 in assay [1] was above 10 µM.

As for `C[C@@H](CC(=O)O)NC(=O)c1ccc([C@@H](CCC(C)(C)C)N2C(=O)C(c3cc(Cl)cc(Cl)c3)=N[C@]23CC[C@@H](C(C)(C)C)CC3)cc1`, the half-inhibitory concentration (IC50) in assay [1] was above 10 µM; on Glucagon receptor [3], above 10000 nM.

For `CC(C)[C@H](c1ccc(C(=O)NCc2nn[nH]n2)cc1)N1C(=O)C(c2cc(Cl)cc(Cl)c2)=N[C@]12CC[C@@H](C(C)(C)C)CC2`, at Glucagon receptor [3], the IC50 is 2200 nM.

As to `CC(C)(C)CC[C@H](c1ccc(C(=O)NCCC2=NNNN2)cc1)N1C(=O)C(c2cc(Cl)cc(Cl)c2)=N[C@]12CC[C@@H](C(C)(C)C)CC2`, the figures for the IC50 (in assay [1]; at Glucagon receptor [2]; at Glucagon receptor [3]) were above 10 µM, 65 nM and 890 nM, respectively.

In the case of `CC(C)(C)CC[C@H](c1ccc(C(=O)Nc2nnn[nH]2)cc1)N1C(=O)C(c2cc(Cl)cc(Cl)c2)=N[C@]12CC[C@@H](C(C)(C)C)CC2`, the IC50 worked out at 0.14 µM in assay [1], 600 nM against Glucagon receptor [2] and 850 nM at Glucagon receptor [3].

For `COc1ccc(C2=N[C@]3(CC[C@@H](C(C)(C)C)CC3)N([C@H](CCC(C)(C)C)c3ccc(C(=O)NCc4nn[nH]n4)cc3)C2=O)cc1`, the IC50 in assay [1] was above 10 µM; against Glucagon receptor [2], 26 nM; at Glucagon receptor [3], 360 nM.

`CC(C)(C)CC[C@H](c1ccc(C(=O)NC[C@H](O)C(=O)O)cc1)N1C(=O)C(c2cc(Cl)cc(Cl)c2)=N[C@]12CC[C@@H](C(C)(C)C)CC2`: the IC50 in assay [1] is above 10 µM; on Glucagon receptor [2], 86 nM; on Glucagon receptor [3] it was 370 nM.

Turning to `CC(C)(C)CC[C@H](c1ccc(C(=O)NCC(=O)O)cc1)N1C(=O)C(c2cc(Cl)cc(Cl)c2)=N[C@]12CC[C@@H](C(C)(C)C)CC2`, the IC50 in assay [1] was above 10 µM; on Glucagon receptor [3], 2700 nM.

With `C[C@H](NC(=O)c1ccc([C@@H](CCC(C)(C)C)N2C(=O)C(c3cc(Cl)cc(Cl)c3)=N[C@]23CC[C@@H](C(C)(C)C)CC3)cc1)c1nnn[nH]1`, the results for the IC50 (in assay [1]; at Glucagon receptor [3]) were above 10 µM and above 10000 nM, respectively.

Source of the values: ChEMBL document CHEMBL3232855, “The discovery of N-((2H-tetrazol-5-yl)methyl)-4-((R)-1-((5r,8R)-8-(tert-butyl)-3-(3,5-dichlorophenyl)-2-oxo-1,4-diazaspiro[4.5]dec-3-en-1-yl)-4,4-dimethylpentyl)benzamide (SCH 900822): a potent and selective glucagon receptor antagonist” (J Med Chem, 2014).
